{"source": "ChEMBL document CHEMBL5537201", "about": "“Discovery of Unique Bis-Substituted Aromatic Amide Derivatives as Novel Highly Potent Antibiotics for Combating Methicillin-Resistant Staphylococcus aureus (MRSA)” (J Med Chem, 2024)", "key": {"[1]": {"test": "Toxicity in BALB/c mouse assessed as as effect on heart at 25 to 50 mg/kg, iv by H and E staining based analysis", "assay_type": "organism-based", "settings": "in vivo, dose 25-50 mg/kg"}, "Staphylococcus aureus [2]": {"tested_on": "Staphylococcus aureus", "test": "Antibacterial activity against methicillin-resistant Staphylococcus aureus clinical isolate MRS153 infected in C57BL/6N mouse model assessed as improvement in survival rate at 3.125 to 12.5 mg/kg, iv administered as single dose measured for 7 days", "assay_type": "functional, organism-based", "settings": "dose 3.125-12.5 mg/kg, time 7.0 day"}, "Staphylococcus aureus [3]": {"tested_on": "Staphylococcus aureus", "test": "Antimicrobial activity against Staphylococcus aureus ATCC6538 assessed as proton dynamic dissipation at pH 5 to 11", "assay_type": "functional, organism-based"}, "Staphylococcus aureus [4]": {"tested_on": "Staphylococcus aureus", "test": "Antibiofilm activity against Staphylococcus aureus clinical isolate MRS153 assessed as reduction in biofilm formation at 1 to 32 ug/ml incubated for 20 to 22 hrs by crystal violet staining based analysis", "assay_type": "functional, organism-based", "settings": "dose 1-32 µg/ml, time 20-22 hrs"}, "Staphylococcus aureus [5]": {"tested_on": "Staphylococcus aureus", "test": "In vivo antibacterial activity against methicillin-resistant Staphylococcus aureus clinical isolate MRS153 infected in C57BL/6N mouse model assessed as reduction in bacterial load in spleen at 3.125 to 12.5 mg/kg, iv measured after 24 hrs", "assay_type": "functional, organism-based", "settings": "dose 3.125-12.5 mg/kg"}, "Cell membrane [6]": {"tested_on": "Cell membrane", "test": "Disruption of cell membrane integrity in methicillin resistant Staphylococcus aureus clinical isolate MRS153 assessed as increase in fluorescence intensity at 1 to 26 times MIC measured upto 36 mins ethidium bromide uptake assay", "assay_type": "cell membranes"}, "Staphylococcus aureus [7]": {"tested_on": "Staphylococcus aureus", "test": "Antimicrobial activity against methicillin resistant Staphylococcus aureus clinical isolate MRS153 assessed as increase in ROS levels measured upto 180 mins in presence of chloramphenicol by H2DCFDA probe based flow cytometry", "assay_type": "functional, organism-based"}, "[8]": {"test": "Binding affinity to Staphylococcus aureus ATCC6538 Cardiolipin assessed as dissociation constant by ITC analysis"}, "[9]": {"test": "Toxicity in BALB/c mouse assessed as as effect on lung at 25 to 50 mg/kg, iv by H and E staining based analysis", "assay_type": "organism-based", "settings": "in vivo, dose 25-50 mg/kg"}, "Cell membrane [10]": {"tested_on": "Cell membrane", "test": "Induction of Outer membrane disruption in methicillin resistant Staphylococcus aureus clinical isolate MRS153 assessed as […] in fluorescence intensity measured upto 30 mins by NPN dye based fluorescence analysis", "assay_type": "cell membranes"}, "A549": {"tested_on": "A549", "test": "Cytotoxicity against human A549 cells assessed as reduction in cell viability measured after 24 hrs by CCK-8 method", "assay_type": "functional, cell-based", "settings": "A549, 24 h"}, "Staphylococcus aureus [11]": {"tested_on": "Staphylococcus aureus", "test": "Antimicrobial activity against methicillin resistant Staphylococcus aureus clinical isolate MRS70 assessed as reduction in bacterial growth incubated for 24 hrs by two-fold broth dilution method", "assay_type": "functional"}, "Cell membrane [12]": {"tested_on": "Cell membrane", "test": "Induction of inner membrane permeabilization in methicillin resistant Staphylococcus aureus clinical isolate MRS153 assessed as disruption of cell membrane by measuring rightward shift measured after by PI staining based flow cytometry analysis", "assay_type": "cell membranes"}, "Staphylococcus aureus [13]": {"tested_on": "Staphylococcus aureus", "test": "Antibacterial activity against methicillin-resistant Staphylococcus aureus clinical isolate MRS153 infected in C57BL/6N mouse model assessed as infiltration of inflammatory cells at 3.125 to 12.5 mg/kg, iv", "assay_type": "functional, organism-based", "settings": "dose 3.125-12.5 mg/kg"}, "Cell membrane [14]": {"tested_on": "Cell membrane", "test": "Induction of Outer membrane disruption in Staphylococcus aureus ATCC6538 assessed as […] in fluorescence intensity measured upto 30 mins by NPN dye based fluorescence analysis", "assay_type": "cell membranes"}, "Staphylococcus aureus [15]": {"tested_on": "Staphylococcus aureus", "test": "Antimicrobial activity against Staphylococcus aureus ATCC6538 assessed as increase in ROS levels measured upto 90 mins by H2DCFDA probe based flow cytometry", "assay_type": "functional, organism-based"}, "Staphylococcus aureus [16]": {"tested_on": "Staphylococcus aureus", "test": "Antimicrobial activity against methicillin resistant Staphylococcus aureus clinical isolate MRS153 assessed as membrane fluidity measured after 35 mins", "assay_type": "functional, organism-based"}, "[17]": {"test": "Toxicity in BALB/c mouse assessed as as change in BUN level at 25 to 50 mg/kg, iv", "assay_type": "organism-based", "settings": "in vivo, dose 25-50 mg/kg"}, "Staphylococcus aureus [18]": {"tested_on": "Staphylococcus aureus", "test": "Binding affinity to methicillin resistant Staphylococcus aureus clinical isolate MRS153 Phosphatidylglycerol assessed as change in MIC at upto 256 ug/ml measured after 22 hrs", "settings": "dose <= 256.0 µg/ml"}, "Staphylococcus aureus [19]": {"tested_on": "Staphylococcus aureus", "test": "Bactericidal activity against Staphylococcus aureus ATCC6538 at 5 ug/ml measured upto 150 mins", "assay_type": "functional, organism-based", "settings": "dose 5.0 µg/ml"}, "Streptomyces albus": {"tested_on": "Streptomyces albus", "test": "Antimicrobial activity against Streptomyces albus SHBC D11158 assessed as reduction in bacterial growth incubated for 24 hrs by two-fold broth dilution method", "assay_type": "functional"}, "Staphylococcus aureus [20]": {"tested_on": "Staphylococcus aureus", "test": "Bactericidal activity against methicillin-resistant Staphylococcus aureus clinical isolate MRS97 at 5 ug/ml measured upto 150 mins", "assay_type": "functional, organism-based", "settings": "dose 5.0 µg/ml"}, "Staphylococcus aureus [21]": {"tested_on": "Staphylococcus aureus", "test": "Bactericidal activity against methicillin-resistant Staphylococcus aureus clinical isolate MRS1 at 5 ug/ml measured upto 150 mins", "assay_type": "functional, organism-based", "settings": "dose 5.0 µg/ml"}, "Staphylococcus aureus [22]": {"tested_on": "Staphylococcus aureus", "test": "Bactericidal activity against Staphylococcus aureus ATCC6538 assessed as reduction in survival rate at 5 to 10 times MIC measured within 1 hr by colony counting method", "assay_type": "functional, organism-based"}, "[23]": {"test": "Cytotoxicity against African green monkey Vero E6 cells assessed as reduction in cell viability measured after 24 hrs by CCK-8 method", "assay_type": "toxicity, cell-based, Chlorocebus sabaeus, Vero C1008"}, "Cell membrane [24]": {"tested_on": "Cell membrane", "test": "Induction of inner membrane permeabilization in Staphylococcus aureus ATCC6538 assessed as disruption of cell membrane by measuring rightward shift measured after by PI staining based flow cytometry analysis", "assay_type": "cell membranes"}, "Staphylococcus aureus [25]": {"tested_on": "Staphylococcus aureus", "test": "Antimicrobial activity against Staphylococcus aureus ATCC6538 assessed as increase in ROS levels measured upto 180 mins in presence of 2,2'-bipyridyl and thiourea by H2DCFDA probe based flow cytometry", "assay_type": "functional, organism-based"}, "Staphylococcus hominis": {"tested_on": "Staphylococcus hominis", "test": "Antimicrobial activity against methicillin-resistant Staphylococcus hominis assessed as reduction in bacterial growth incubated for 24 hrs by two-fold broth dilution method", "assay_type": "functional"}, "Staphylococcus aureus [26]": {"tested_on": "Staphylococcus aureus", "test": "Antimicrobial activity against Staphylococcus aureus N315 assessed as reduction in bacterial growth incubated for 24 hrs by two-fold broth dilution method", "assay_type": "functional"}, "Cell membrane [27]": {"tested_on": "Cell membrane", "test": "Induction of inner membrane permeabilization in Staphylococcus aureus ATCC6538 assessed as increase in blue fluorescence at 5 ug/ml by DAPI staining based analysis", "assay_type": "cell membranes", "settings": "dose 5.0 µg/ml"}, "Staphylococcus aureus [28]": {"tested_on": "Staphylococcus aureus", "test": "Bactericidal activity against vancomycin-resistant Staphylococcus aureus ATCC6538 measured upto 120 mins by colony counting method", "assay_type": "functional, organism-based"}, "Staphylococcus aureus [29]": {"tested_on": "Staphylococcus aureus", "test": "In vivo antibacterial activity against methicillin-resistant Staphylococcus aureus clinical isolate MRS153 infected in C57BL/6N mouse model assessed as reduction in bacterial load in kidney at 3.125 to 12.5 mg/kg, iv measured after 24 hrs", "assay_type": "functional, organism-based", "settings": "dose 3.125-12.5 mg/kg"}, "[30]": {"test": "Toxicity in BALB/c mouse assessed as as change in AST level at 25 to 50 mg/kg, iv", "assay_type": "organism-based", "settings": "in vivo, dose 25-50 mg/kg"}, "Cell membrane [31]": {"tested_on": "Cell membrane", "test": "Induction of inner membrane permeabilization in methicillin resistant Staphylococcus aureus clinical isolate MRS153 assessed as increase in red fluorescence at 5 ug/ml by PI staining based analysis", "assay_type": "cell membranes", "settings": "dose 5.0 µg/ml"}, "[32]": {"test": "Toxicity in BALB/c mouse assessed as as effect on kidney at 25 to 50 mg/kg, iv by H and E staining based analysis", "assay_type": "organism-based", "settings": "in vivo, dose 25-50 mg/kg"}, "Staphylococcus aureus [33]": {"tested_on": "Staphylococcus aureus", "test": "Induction of membrane morphological changes in Staphylococcus aureus ATCC6538 assessed as formation of cell pit at 5 times of MIC measured after 0.5 hrs by FE-SEM analysis", "assay_type": "functional, organism-based"}, "Cell membrane [34]": {"tested_on": "Cell membrane", "test": "Disruption of cell membrane integrity in Staphylococcus aureus ATCC6538 assessed as increase in fluorescence intensity at 1 to 26 times MIC measured upto 36 mins ethidium bromide uptake assay", "assay_type": "cell membranes"}, "Staphylococcus aureus [35]": {"tested_on": "Staphylococcus aureus", "test": "Upregulation of repair gene expression in Staphylococcus aureus ATCC6538 at 5 ug/ml incubated for 2 hrs by RNA sequencing analysis", "assay_type": "functional, organism-based", "settings": "dose 5.0 µg/ml"}}, "note": "The source made the active and inactive calls. The rule behind the calls is not given here.", "data": [{"smiles": "O=C(CCC(F)(F)F)N(Cc1cc2ccccc2s1)c1cc(-c2noc(C(F)(F)F)n2)ccc1O", "values": [{"measurement": "Activity", "setting": "[1]", "result": "Non-Toxic"}, {"measurement": "Activity", "setting": "Staphylococcus aureus [2]", "result": "Active"}, {"measurement": "Activity", "setting": "Staphylococcus aureus [3]", "result": "Active"}, {"measurement": "Activity", "setting": "Staphylococcus aureus [4]", "result": "Active"}, {"measurement": "Activity", "setting": "Staphylococcus aureus [5]", "result": "Active"}, {"measurement": "Activity", "setting": "Cell membrane [6]", "result": "Active"}, {"measurement": "Activity", "setting": "Staphylococcus aureus [7]", "result": "inactive"}, {"measurement": "Kd", "setting": "[8]", "result": 5.75, "unit": "µM"}, {"measurement": "Activity", "setting": "[9]", "result": "Non-Toxic"}, {"measurement": "Activity", "setting": "Cell membrane [10]", "result": "Dose-Dependent Effect"}, {"measurement": "IC50", "setting": "A549", "result": 16.8, "unit": "mg/L"}, {"measurement": "MIC", "setting": "Staphylococcus aureus [11]", "result": 1, "unit": "mg/L"}, {"measurement": "Activity", "setting": "Cell membrane [12]", "result": "Active"}, {"measurement": "Activity", "setting": "Staphylococcus aureus [13]", "result": "Active"}, {"measurement": "Activity", "setting": "Cell membrane [14]", "result": "Dose-Dependent Effect"}, {"measurement": "Activity", "setting": "Staphylococcus aureus [15]", "result": "Active"}, {"measurement": "Activity", "setting": "Staphylococcus aureus [16]", "result": "Active"}, {"measurement": "Activity", "setting": "[17]", "result": "Non-Toxic"}, {"measurement": "Activity", "setting": "Staphylococcus aureus [18]", "result": "inactive"}, {"measurement": "Activity", "setting": "Staphylococcus aureus [19]", "result": "Active"}, {"measurement": "MIC", "setting": "Streptomyces albus", "result": "< 0.5", "unit": "mg/L"}, {"measurement": "Activity", "setting": "Staphylococcus aureus [20]", "result": "Active"}, {"measurement": "Activity", "setting": "Staphylococcus aureus [21]", "result": "Active"}, {"measurement": "Activity", "setting": "Staphylococcus aureus [22]", "result": "Active"}, {"measurement": "IC50 at 24 h", "setting": "[23]", "result": "> 25", "unit": "mg/L"}, {"measurement": "Activity", "setting": "Cell membrane [24]", "result": "Active"}, {"measurement": "Activity", "setting": "Staphylococcus aureus [25]", "result": "inactive"}, {"measurement": "MIC", "setting": "Staphylococcus hominis", "result": 1, "unit": "mg/L"}, {"measurement": "MIC", "setting": "Staphylococcus aureus [26]", "result": 0.25, "unit": "mg/L"}, {"measurement": "Activity", "setting": "Cell membrane [27]", "result": "Active"}, {"measurement": "Activity", "setting": "Staphylococcus aureus [28]", "result": "Dose-Dependent Effect"}, {"measurement": "Activity", "setting": "Staphylococcus aureus [29]", "result": "Active"}, {"measurement": "Activity", "setting": "[30]", "result": "Non-Toxic"}, {"measurement": "Activity", "setting": "Cell membrane [31]", "result": "Active"}, {"measurement": "Activity", "setting": "[32]", "result": "Non-Toxic"}, {"measurement": "Activity", "setting": "Staphylococcus aureus [33]", "result": "Active"}, {"measurement": "Activity", "setting": "Cell membrane [34]", "result": "Active"}, {"measurement": "Activity", "setting": "Staphylococcus aureus [35]", "result": "Active"}]}]}
